Assay results taken from paper PMC6968521, “Novel CDKs inhibitors for the treatment of solid tumour by simultaneously regulating the cell cycle and transcription control” (Journal of Enzyme Inhibition and Medicinal Chemistry, 2020).

Tests used:
[1] = tested on: MCF7 cells; assay: Cell cycle assay (propidium iodide, flow cytometry), MCF7; type: cell-based, human; details: 24 h treatment, vs DMSO
Method: (§1) Cells were harvested and washed with phosphate buffered saline (PBS) for three times and then fixed with ice cold 75% ethanol overnight. The fixed cells were then washed with PBS and stained with propidium iodide ([…]) in the presence of RNase A (0.5 mg) for 30 min at 37 °C. The stained cells were then subjected to flow cytometry (Modfit, BD) for cell cycle analysis.

[2] = tested on: MCF7 cells; assay: CCK-8 cytotoxicity assay, MCF7; type: cell-based; details: Homo sapiens, CCK-8, 72 h incubation, three independent experiments, read-out: In vitro cell growth inhibition IC50, MCF7
Method: (§2) All the human cancer cell lines were obtained from ATCC. Cells were cultured in RPMI-1640 (BioInd) medium according to the instructions from ATCC, with the medium containing 10% FBS (BioInd), 1% antibiotics (penicillin and streptomycin) at 37 °C in an atmosphere of 5% CO2.
(§3) Cytotoxicity assay were conducted as described previously using a Cell Counting Kit-8 (CCK-8) assay (#CK04, Dojindo, Kumamoto, Japan)[37].

[3] = tested on: A549 cells; assay: Annexin V-FITC/PI apoptosis assay, A549; type: cell-based, human; details: 48 h incubation, compared to DMSO or ribociclib
Method: (§4) Cells at a density of 3 × 10^5 cells/mL were seeded in six-well plates and treated with compounds at different concentrations for 48 h. The cells were then harvested and washed twice with cold PBS. Then the cells were subjected to an Annexin V/PI Apoptosis Detection kit (BD Biosciences) for staining according to manufacture’s instructions, and finally analysed by flow cytometry (Modfit, BD).

[4] = molecular target: T1, CDK4 (Homo sapiens, UniProt P11802); assay: Kinase inhibition assay (KinaseProfiler, Eurofins), CDK4; type: biochemical
T1 construct: purchased Eurofins (KinaseProfiler service)
T1 sequence (P11802 whole entry): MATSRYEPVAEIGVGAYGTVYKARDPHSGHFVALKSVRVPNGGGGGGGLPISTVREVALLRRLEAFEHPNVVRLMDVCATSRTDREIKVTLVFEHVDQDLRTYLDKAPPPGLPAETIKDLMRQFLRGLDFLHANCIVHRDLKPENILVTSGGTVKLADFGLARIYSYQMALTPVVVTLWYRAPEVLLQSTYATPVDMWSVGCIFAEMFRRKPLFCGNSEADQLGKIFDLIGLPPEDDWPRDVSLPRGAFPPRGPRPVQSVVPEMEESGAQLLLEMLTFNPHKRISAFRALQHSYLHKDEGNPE
T1 sequence (P30281 whole entry partner): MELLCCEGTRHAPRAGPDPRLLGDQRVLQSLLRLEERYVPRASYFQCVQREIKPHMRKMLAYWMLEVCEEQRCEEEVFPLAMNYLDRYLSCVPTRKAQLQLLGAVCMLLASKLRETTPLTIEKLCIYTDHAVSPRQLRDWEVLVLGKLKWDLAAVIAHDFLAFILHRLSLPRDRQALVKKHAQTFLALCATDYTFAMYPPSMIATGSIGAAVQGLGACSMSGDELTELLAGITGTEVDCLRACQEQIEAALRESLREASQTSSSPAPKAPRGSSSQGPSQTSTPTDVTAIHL
Method: (§5) Kinase inhibition profiles were determined using KinaseProfiler services provided by Eurofins, and ATP concentrations used the Km of corresponding kinases.

[5] = molecular target: T2, CDK6 (Homo sapiens, UniProt Q00534); assay: Kinase inhibition assay (KinaseProfiler, Eurofins), CDK6; type: biochemical
T2 construct: purchased Eurofins (KinaseProfiler service)
T2 sequence (Q00534 whole entry): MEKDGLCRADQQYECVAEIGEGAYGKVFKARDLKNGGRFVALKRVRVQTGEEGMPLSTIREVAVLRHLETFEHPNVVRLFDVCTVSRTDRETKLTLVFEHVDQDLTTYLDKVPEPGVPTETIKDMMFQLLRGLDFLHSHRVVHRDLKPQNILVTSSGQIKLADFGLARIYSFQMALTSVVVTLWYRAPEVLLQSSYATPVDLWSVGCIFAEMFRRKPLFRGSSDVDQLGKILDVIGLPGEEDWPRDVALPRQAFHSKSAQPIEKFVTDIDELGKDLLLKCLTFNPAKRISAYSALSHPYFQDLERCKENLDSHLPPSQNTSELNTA
T2 sequence (P30281 whole entry partner): as the sequence (P30281 whole entry partner) above
Method: as §5

[6] = molecular target: T3, CDK9 (Homo sapiens, UniProt P50750); assay: Kinase inhibition assay (KinaseProfiler, Eurofins), CDK9; type: biochemical
T3 construct: purchased Eurofins (KinaseProfiler service)
T3 sequence (P50750 whole entry): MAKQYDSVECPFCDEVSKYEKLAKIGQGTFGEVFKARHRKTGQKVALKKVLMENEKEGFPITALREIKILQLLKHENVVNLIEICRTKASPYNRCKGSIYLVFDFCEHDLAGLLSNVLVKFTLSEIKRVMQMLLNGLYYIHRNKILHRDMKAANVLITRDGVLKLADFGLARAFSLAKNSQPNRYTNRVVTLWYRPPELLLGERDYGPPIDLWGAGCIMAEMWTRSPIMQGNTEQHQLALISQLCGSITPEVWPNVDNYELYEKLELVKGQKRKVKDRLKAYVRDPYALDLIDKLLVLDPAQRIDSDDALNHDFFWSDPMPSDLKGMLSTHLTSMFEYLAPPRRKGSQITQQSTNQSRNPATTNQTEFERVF
T3 sequence (O60563 whole entry partner): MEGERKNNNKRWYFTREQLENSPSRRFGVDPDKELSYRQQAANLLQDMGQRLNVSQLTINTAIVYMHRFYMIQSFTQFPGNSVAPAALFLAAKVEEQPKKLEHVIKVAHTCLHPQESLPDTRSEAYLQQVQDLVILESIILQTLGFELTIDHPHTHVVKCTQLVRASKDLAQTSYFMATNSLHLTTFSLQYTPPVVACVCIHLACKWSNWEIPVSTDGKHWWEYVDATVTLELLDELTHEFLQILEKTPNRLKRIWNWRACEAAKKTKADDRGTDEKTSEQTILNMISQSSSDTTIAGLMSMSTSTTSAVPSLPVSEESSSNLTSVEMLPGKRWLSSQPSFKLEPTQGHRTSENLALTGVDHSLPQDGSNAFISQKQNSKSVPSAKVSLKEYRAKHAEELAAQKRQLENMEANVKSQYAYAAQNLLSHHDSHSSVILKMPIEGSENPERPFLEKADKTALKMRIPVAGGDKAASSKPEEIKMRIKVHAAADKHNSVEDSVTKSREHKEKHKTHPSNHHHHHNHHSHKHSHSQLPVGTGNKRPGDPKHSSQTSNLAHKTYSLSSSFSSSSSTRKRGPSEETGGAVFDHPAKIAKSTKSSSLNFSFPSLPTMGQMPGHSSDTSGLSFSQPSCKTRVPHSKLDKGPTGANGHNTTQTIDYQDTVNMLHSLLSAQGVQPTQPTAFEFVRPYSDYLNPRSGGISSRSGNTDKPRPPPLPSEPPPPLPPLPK
Method: as §5

[7] = tested on: RNAPII CTD Ser2 and Ser5 phosphorylation in A549 cells; assay: Western blotting of RNAPII CTD phosphorylation, A549; type: cell-based, human; details: 24 h, vs DMSO
Method: (§6) Protein extraction and western blotting methods were performed as described previously. The antibodies used in this study including anti-β-actin (Santa Cruz; sc-47778), anti-p53 (CST; #9282), anti-phospho-p53^Ser15 (CST; #9284), anti-Bax (CST; #2772), anti-Bcl-2 (BD; #51-6511GR), anti-Rb (CST; #9309), anti-phospho-Rb^Ser807/811 (CST; #8516), anti-phospho-Rb^Ser780 (CST; #9307), anti-RNA polymerase II CTD (Abcam; ab817), anti-RNA polymerase II CTD^phospho S5 (Abcam; ab5131), anti-RNA polymerase II CTD^phospho S2 (Abcam; ab5095).

[8] = tested on: H1299 cells; assay: CCK-8 cytotoxicity assay, H1299; type: cell-based; details: Homo sapiens, NCI-H1299; CCK-8, 72 h incubation, three independent experiments; read-out: In vitro cell growth inhibition IC50, H1299
Method: as §2, §3

[9] = tested on: A549 cells; assay: Cell cycle assay (propidium iodide, flow cytometry), A549; type: cell-based, human; details: 24 h treatment, vs DMSO
Method: as §1

[10] = tested on: 4T1 homograft tumours; assay: In vivo 4T1 homograft tumour model; details: for Tumour inhibition rate: oral gavage daily for 18 days, 4T1 homograft in BALB/c mice
Method: 4T1 breast cancer cells (5 × 10^4) were injected in the mammary fat pads of 6 − 8 weeks old female BALB/c mice. Once the tumours grew to a volume of approximately 100–150 mm^3, they were placed into five treatment groups (n = 3, with a total tumour number of 15). The mice were treated daily for 18 days via oral gavage. Body weights and tumour size were determined every other day. Tumour measurements were found using a digital vernier calliper, and the volumes were determined using the following calculation: (short^2) × long × 0.5. Experiments were performed under an approved IACUC protocol according to federal and institutional guidelines and regulations. Inhibition rate of tumour growth was calculated using the following formula: 100 × {1 − [(tumour volumefinal − tumour volumeinitial) for X22-treated group]/[(tumour volumefinal − tumour volumeinitial) for the vehicle-treated group]}.

[11] = tested on: RNAPII CTD Ser2 and Ser5 phosphorylation in MCF7 cells; assay: Western blotting of RNAPII CTD phosphorylation, MCF7; type: cell-based, human; details: 24 h, vs DMSO
Method: as §6

[12] = tested on: 4T1 breast cancer cells; assay: CCK-8 cytotoxicity assay, 4T1; type: cell-based; details: CCK-8, 72 h incubation, three independent experiments; read-out: In vitro cell growth inhibition IC50, 4T1
Method: as §2, §3

[13] = tested on: MCF7 cells; assay: Annexin V-FITC/PI apoptosis assay, MCF7; type: cell-based, human; details: 0.1 to 0.5 µM, 48 h incubation
Method: as §4

[14] = tested on: A549 cells; assay: CCK-8 cytotoxicity assay, A549; type: cell-based; details: Homo sapiens, CCK-8, 72 h incubation, three independent experiments, read-out: In vitro cell growth inhibition IC50, A549
Method: as §2, §3

[15] = tested on: H460 cells; assay: CCK-8 cytotoxicity assay, H460; type: cell-based; details: Homo sapiens, NCI-H460; CCK-8, 72 h incubation, three independent experiments; read-out: In vitro cell growth inhibition IC50, H460
Method: as §2, §3

[16] = tested on: T-47D cells; assay: CCK-8 cytotoxicity assay, T-47D; type: cell-based; details: Homo sapiens, T47D; CCK-8, 72 h incubation, three independent experiments; read-out: In vitro cell growth inhibition IC50, T-47D
Method: as §2, §3

[17] = ATP at Km, mean of two independent experiments

CN(C)C(=O)c1cc2cnc(Nc3ccc(CS(=O)(=O)CCCCCCN=C=S)cc3)nc2n1C1CCCC1 [X22]
Effect on the cell cycle [1]: blocked the cell cycle at G2/M phase
IC50 [2]: 110 ± 70 nM
Proportion of apoptotic cells (Q2 late apoptotic and Q3 early apoptotic) [3]: dose-dependently increased
inhibition at 1 µM [4]: 97 ± 0.4%
IC50 [4, 17]: 30 ± 3.9 nM
inhibition at 1 µM [5]: 91%
IC50 [5, 17]: 126 ± 20.6 nM
inhibition at 1 µM [6]: 98%
IC50 [6, 17]: 10 ± 1.3 nM
Concentration that effectively inhibited the phosphorylation of Ser2 and Ser5 of RNAPII CTD [7]: 1 µM
IC50 [8]: 570 ± 70 nM
Effect on the cell cycle [9]: blocked the cell cycle at G2/M phase
Tumour inhibition rate ([10]; 15 mg/kg): 51.8 ± 17.5%
Tumour inhibition rate ([10]; 30 mg/kg): 65.4 ± 11.7%
Tumour inhibition rate ([10]; 60 mg/kg): 70.3 ± 4.4%
Signs of toxicity (preliminary toxicity evaluation) ([10]; 15, 30 or 60 mg/kg oral daily, 18 days, BALB/c mice): No obvious signs of toxicity
Average tumour weight of excised tumours ([10]; day 18, compared with other groups): obviously lighter
Mouse body weight ([10]; monitored over 18 days, among the five groups of mice): no significant difference
Concentration that effectively inhibited the phosphorylation of Ser2 and Ser5 of RNAPII CTD [11]: 0.5 µM
IC50 [12]: 83 nM
Increase of the percentages of apoptotic cells compared to DMSO-treated cells [13]: 2.2 to 3.5 fold change
IC50 [14]: 210 ± 70 nM
IC50 [15]: 1800 ± 340 nM
IC50 [16]: 110 ± 10 nM
